Drawing on patent US9073880B2, “2-(2-phenylethenyl) 1,3-benzodiazepine derivatives useful for the treatment of cancer” (Yissum Research Development Company of the Hebrew …, priority 2010, dated 2015), this text covers IC50 for two compounds.

What all share (format): cell-based
Test [1] deals with human melanoma YUMAC cells. The test is described as follows: Cell proliferation, YUMAC (Example 4). Conditions: compound in 2-hydroxypropyl-β-cyclodextrin. As to the method:
(§1) Human ovary cancer A2780 cells lines were seeded at a density of 5000 cells/well, human melanoma A375 cells were plated at a density of 2,500 cells/well, human colon carcinoma HCT15 cells were plated at a density of 3,000 cells/well, human prostate carcinoma PC3 cells were plated at a density of 1,500 cells/well, human breast carcinoma MCF7 cells were plated at a density of 5,000 cells/well, human breast carcinoma MDA MB 468 cells were plated at a density of 6,000 cells/well, human myeloma U266, RPMI8226 and CAG cells were plated at a density of 10,000 cells/well. All cells were plated in 96-well plates in 90 μl growth medium containing 10% FCS, 100 units/ml penicillin and 100 μg/ml streptomycin. Compound 3 was added a day later in […] of 1% DMSO in DDW to obtain final concentrations of 0, 0.1, 0.3, 1, 3, and 10 μM. The final concentration of DMSO (0.1% DMSO) was kept constant in all samples. Following exposure of the cells to compound 3 for 72 hours at 37° C., adhered cells were fixed in 0.5% gluteraldehyde in medium for 10 min, washed three times with DDW, once with 0.1M sodium borate buffer pH 8.5 and stained with 1% methylene blue dissolved in 0.1M borate buffer solution for 60 min. Excess dye was washed out and cell-bound dye was eluted with 200 μl/well of 0.1M HCl. The optical density values were read at 630 nm in ELISA plate reader. Non-adhered cells were exposed to WST-1 reagent for 5 hours following 72 hours treatment with the inhibitors, and optical density values were read at 630 nm in ELISA plate reader. The data was analyzed in Microsoft Excel, using the vehicle control as 100% proliferation. The assays were performed in triplicates. The values of IC50 were derived from the dose-dependent growth curves obtained.
(§2) Cell proliferation assay was performed as described in Example 2. The following cell line were plated in 96-well plates in 90 μl growth medium containing 10% FCS, 100 units/ml penicillin and 100 μg/ml streptomycin: human ovary cancer A2780 cells (4500 cells/well), human melanoma A375 (1500 cells/well) and YUMAC (2500 cells/well) cells, human colon carcinoma HCT15 (3000 cells/well) and HCT116 (2000 cells/well) cells, human prostate carcinoma PC3 (3000 cells/well), PC3MM2 (3500 cells/well) and DU145 (300 cells/well) cells, human hepatocarcinoma HepG2 (3000 cells/well), human Ewing sarcoma SK-ES-1 (4,500 cells/well), human glioblastoma U138MG (2,000 cells/well), human breast cancer T47D (4000 cells/well) and MDA-MB-468 (6000 cells/well) cells, human small cell lung carcinoma NCI-H1975 (5000 cells/well) cells, human osteosarcoma Saos-2 (5000 cells/well) cells, human pancreatic cancer ASPC (2500 cells/well) cells, human bladder carcinoma T24P (1000 cells/well) cells, human gastric cancer NCI-N87 (5000 cells/well) cells, human lymphoma KARPAS (5,000 cells/well) cells, human leukemia K562 (5,000 cells/well) cells and human multiple myeloma MM1S (10,000 cells/well), U266 (10,000 cells/well) and CAG (5,000 cells/well). Compounds 2-5 and 7-8 were added a day later in 10 μl of 0.7% 2-hydroxypropyl-β-cyclodextrin to obtain final concentrations of 0, 0.1, 0.3, 1, 3 and 10 μM.
(§3) Compounds 2-5 and 7-8 of the present invention were tested for their inhibitory potential in cell proliferation assay. […]

The test system of test [2] is human multiple myeloma MM1S cells. The test is described as follows: Cell proliferation, MM1S (Example 4). Conditions: MM1.S, compound in 2-hydroxypropyl-β-cyclodextrin. As to the method: as §1, §2
Compounds 2-5 and 7-8 of the present invention were tested for their inhibitory potential in cell proliferation assay. Human ovary cancer A2780 cells, human melanoma A375 and YUMAC cells, human colon carcinoma HCT15 and HCT116 cells, human prostate carcinoma PC3, PC3MM2 and DU145 cells, human hepatocarcinoma HepG2 cells, human Ewing sarcoma SK-ES-1 cells, human glioblastoma U138MG cells, human breast cancer T47D and MDA-MB-468 cells, human small cell lung carcinoma NCI-H1975 cells, human osteosarcoma Saos-2 cells, human pancreatic cancer ASPC cells, human bladder cancer T24P cells, human gastric cancer cells, human lymphoma KARPAS cells, human leukemia K562 cells, and human multiple myeloma MM1S, CAG and U266 cells, were exposed to increasing concentrations of compounds 2-5 and 7-8. […]

Test [3] concerns human glioblastoma U138MG cells. Kind of test: Cell proliferation, U138MG (Example 4). The note with it: U138-MG, compound in 2-hydroxypropyl-β-cyclodextrin. On the procedure:
as §1
(§4) Cell proliferation assay was performed as described in Example 2. […]

Test [4] deals with human Ewing sarcoma SK-ES-1 cells. The test is described as follows: Cell proliferation, SK-ES-1 (Example 4). Conditions: SK-ES1, SK-ES-1, Ewing sarcoma, compound in 2-hydroxypropyl-β-cyclodextrin. On the procedure:
as §1, §4

Test [5] has as its system human prostate carcinoma PC3MM2 cells. The test is described as follows: Cell proliferation, PC3MM2 (Example 4). Conditions: PC3MM2, prostate cancer, compound in 2-hydroxypropyl-β-cyclodextrin. As to the method:
as §1, §4

Test [6] concerns human prostate carcinoma DU145 cells. Kind of test: Cell proliferation, DU145 (Example 4). The note with it: DU-145, DU145, prostate cancer, compound in 2-hydroxypropyl-β-cyclodextrin. As to the method: as §1, §4
Test [7] concerns human breast cancer MDA-MB-468 cells. The test is described as follows: Cell proliferation, MDA-MB-468 (Example 4). Conditions: MDA-MB-468, breast cancer, compound in 2-hydroxypropyl-β-cyclodextrin. As to the method: as §1, §4
Test [8] concerns human multiple myeloma CAG cells. Kind of test: Cell proliferation, CAG (Example 4). The note with it: compound in 2-hydroxypropyl-β-cyclodextrin. On the procedure: as §1, §4
Test [9] has as its system human pancreatic cancer ASPC cells. Kind of test: Cell proliferation, ASPC (Example 4). Conditions: compound in 2-hydroxypropyl-β-cyclodextrin. On the procedure:
as §1, §2, §3

The test system of test [10] is human colon carcinoma HCT116 cells. Kind of test: Cell proliferation, HCT116 (Example 4). Conditions: HCT-116, HCT116, colon cancer, compound in 2-hydroxypropyl-β-cyclodextrin. On the procedure:
as §1, §2, §3

Test [11] relates to human myeloma RPMI8226 cells. The test is described as follows: Cell proliferation, RPMI8226 (Example 2). Conditions: RPMI-8226, RPMI8226, multiple myeloma, 72 hours, 0.1% DMSO, WST-1. As to the method:
as §1, with “Following exposure of the cells to compound 3 for 72 hours at 37° C., adhered cells were fixed in 0.5% gluteraldehyde in medium for 10 min, washed three times with DDW, once with 0.1M sodium borate buffer pH 8.5 and stained with 1% methylene blue dissolved in 0.1M borate buffer solution for 60 min. Excess dye was washed out and cell-bound dye was eluted with 200 μl/well of 0.1M HCl.” left out, “The assays were performed in triplicates. The values of IC50 were derived from the dose-dependent growth curves obtained.” left out
(Formazan colour is commonly taken as a measure of viable cells.)

Test [12] has as its system human melanoma A375 cells. Kind of test: Cell proliferation, A375 (Example 2). Conditions: A-375, 72 hours, 0.1% DMSO, methylene blue. As to the method: as §1, with “Following exposure of the cells to compound 3 for 72 hours at 37° C., adhered cells were fixed in 0.5% gluteraldehyde in medium for 10 min, washed three times with DDW, once with 0.1M sodium borate buffer pH 8.5 and stained with 1% methylene blue dissolved in 0.1M borate buffer solution for 60 min. Excess dye was washed out and cell-bound dye was eluted with 200 μl/well of 0.1M HCl.” left out, “The assays were performed in triplicates. The values of IC50 were derived from the dose-dependent growth curves obtained.” left out

Test [13] deals with human multiple myeloma U266 cells. The test is described as follows: Cell proliferation, U266 (Example 4). The note with it: U-266, compound in 2-hydroxypropyl-β-cyclodextrin. On the procedure: as §1, with “Following exposure of the cells to compound 3 for 72 hours at 37° C., adhered cells were fixed in 0.5% gluteraldehyde in medium for 10 min, washed three times with DDW, once with 0.1M sodium borate buffer pH 8.5 and stained with 1% methylene blue dissolved in 0.1M borate buffer solution for 60 min. Excess dye was washed out and cell-bound dye was eluted with 200 μl/well of 0.1M HCl.” left out, “The assays were performed in triplicates. The values of IC50 were derived from the dose-dependent growth curves obtained.” left out

The term IC50 denotes the midpoint of a concentration-inhibition curve. Take `O=c1c(O)cc2cnc(/C=C/c3ccc(O)c(O)c3Br)sc-2c1O` [Compound 5]: the IC50 turned out to be 200 nM in test [1]; 600 nM in test [2]; 300 nM in test [3]; 600 nM in test [4]; 1800 nM in test [5]; 2700 nM in test [6]. Moreover, the IC50 came to 2900 nM in test [7], 700 nM in [8], 8200 nM in test [9] and 400 nM in [10].

Consider `O=c1c(O)cc2cnc(/C=C/c3cc(O)c(O)c(Br)c3)sc-2c1O` [Compound 3], for which the IC50 in test [1] stood at 300 nM; in test [2], 500 nM; in test [11], 2000 nM; in test [3] it was 300 nM; in test [4] it was 300 nM; in [12], 1000 nM. Besides, the IC50 in [5] was found to be 2300 nM; in [6] it was 2300 nM; in test [13], 700 nM; in [7], 4700 nM; in test [8] it was 900 nM; in [9] it was 13100 nM. Moreover, the IC50 in [10] was determined as 500 nM.
